Data taken from PubChem BioAssay (NCI).
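In this assay, cells in 96-well plates receive the compound at five concentrations for 48 hours. Endpoints are linearly interpolated between the surrounding concentrations. Here, GI50 denotes the concentration required for 50% inhibition of growth. At the TGI there is no net growth.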

system: HS 578T breast; test: DTP human tumour cell line panel, 48 h

Structure (SMILES)	TGI [µM]	GI50 [µM]
Clc1nc(Cl)c(Cl)c(-c2ccccc2)n1	> 100	
COC(C(O)CO)C(O)C(O)C(=O)NNc1ccccc1 (stereo not drawn)	> 100	
NS(=O)(=O)c1ccc(NC2(C(=O)O)CCCC2)cc1	> 100	
O=C(O)C1OC(n2cc(F)c(=O)[nH]c2=O)CC1O (stereo not drawn)	> 100	
N=C1C(c2nc3ccccc3s2)=C(O)CN1c1cc(C(F)(F)F)ccc1Cl	> 100	35.7
CC(=O)CSCc1ccccn1	7.23	
COc1ccccc1CNCCCN1C(=O)c2ccc3c4c(ccc(c24)C1=O)C(=O)N(CCCOCCCCOCCCN)C3=O	5.7	2.02
CCOC(=O)[C@@H](N)CCC(=O)N[C@@H](CSCc1ccccc1)C(=O)N[C@@H](C(=O)OCC)c1ccccc1	47.3	16.6
COc1ccc(Nc2c3ccccc3nc3occc23)cc1	> 67.6	6.23
CC(=O)/C(C)=N/NC(=O)c1ccccc1O	> 100	
CCCCCCCC/C=C/CCCCCCCC(=O)OC[C@H]1O[C@@H](n2ccc(N)nc2=O)C(F)(F)[C@@H]1O	> 100	> 59.9
NS(=O)(=O)c1ccc(N=Nc2c(O)[nH]c3ccc(-c4cnco4)cc23)cc1	> 25	> 25
COc1cc2c3c(n(CCCNC(=O)OCC4c5ccccc5-c5ccccc54)c(=O)c2cc1OC)-c1cc2c(cc1/C3=C\CCNC(=O)OCC1c3ccccc3-c3ccccc31)OCO2	10.2	1.29
N#C/C(=C1C=C(Br)/C(=N\O)C=C\1Cl)c1cccc2ccccc12	17.5	
CN1C(=O)c2cccc3cc([N+](=O)[O-])cc(c23)C1=O	> 10	
CN1c2ccc(Cl)cc2C(=O)NC1c1ccc([N+](=O)[O-])s1 (stereo not drawn)	34.2	
c1cc(CNC23CC4CC(CC(C4)C2)C3)cc(C[N+](Cc2cccc(CNC34CC5CC(CC(C5)C3)C4)c2)(Cc2cccc(CNC34CC5CC(CC(C5)C3)C4)c2)Cc2cccc(CNC34CC5CC(CC(C5)C3)C4)c2)c1 (stereo not drawn)	49.4	8.01

system: HCC-2998 colon; test: DTP human tumour cell line panel, 48 h

Structure (SMILES)	GI50 [µM]	TGI [µM]
CN1CCN(CCCOc2ccc3nc(Nc4ccc(Cl)c(C(F)(F)F)c4)ccc3c2)CC1	14.8	30.4
CC(C)n1nc(-c2cc3cc(O)ccc3[nH]2)c2c(N)ncnc21	0.572	17.8
CCCCC(O)(c1ccc(Cl)cc1)C(CN1CCOCC1)c1ccc(Cl)cc1 (stereo not drawn)	12.3	26.8
Cc1cc(C(=O)Nc2ncc(Cc3cccc(C(F)(F)F)c3)s2)c2ccccc2n1	1.11	> 100
O=C(N/N=C/c1ccc(Cl)cc1)c1ccc(C(F)(F)F)nc1Nc1cccc(C(F)(F)F)c1	4.3	17.3
COc1cc2ncnc(Nc3ccc(C)c(O)c3)c2cc1OC	> 25	> 25
O=C1OC(C(O)CO)C(=O)C1=O (stereo not drawn)	> 10000	> 10000
COC(=O)C1=CNC=C(C(=O)OC)C1C1=CC(=O)C(C)=CC1=O	14.9	28.1
C=C1C(=O)O[C@H]2[C@H]1CC/C(COC(=O)C(=O)c1cn(Cc3ccccc3)c3ccccc13)=C\CC[C@@]1(C)O[C@@H]21	1.91	4.26
COc1ccc(/C=C/c2ccnc3ccccc23)c(OC)c1		> 10
Cc1ccc(C(=O)CN(/C=C/C(=O)C(F)(F)F)c2ccc(S(N)(=O)=O)cc2)cc1	> 100	> 100
Clc1nc(Cl)c(Cl)c(-c2ccccc2)n1		78
COC(C(O)CO)C(O)C(O)C(=O)NNc1ccccc1 (stereo not drawn)		> 100
NS(=O)(=O)c1ccc(NC2(C(=O)O)CCCC2)cc1		> 100
O=C(O)C1OC(n2cc(F)c(=O)[nH]c2=O)CC1O (stereo not drawn)		> 77.4
N=C1C(c2nc3ccccc3s2)=C(O)CN1c1cc(C(F)(F)F)ccc1Cl	2.73	16.3
CC(=O)CSCc1ccccn1		> 100
COc1ccccc1CNCCCN1C(=O)c2ccc3c4c(ccc(c24)C1=O)C(=O)N(CCCOCCCCOCCCN)C3=O	0.625	2.02
CCOC(=O)[C@@H](N)CCC(=O)N[C@@H](CSCc1ccccc1)C(=O)N[C@@H](C(=O)OCC)c1ccccc1	16.7	32.2
COc1ccc(Nc2c3ccccc3nc3occc23)cc1	0.541	12.2
CC(=O)/C(C)=N/NC(=O)c1ccccc1O	> 100	> 100
CCCCCCCC/C=C/CCCCCCCC(=O)OC[C@H]1O[C@@H](n2ccc(N)nc2=O)C(F)(F)[C@@H]1O	17.5	> 100
NS(=O)(=O)c1ccc(N=Nc2c(O)[nH]c3ccc(-c4cnco4)cc23)cc1	> 25	> 25
COc1cc2c3c(n(CCCNC(=O)OCC4c5ccccc5-c5ccccc54)c(=O)c2cc1OC)-c1cc2c(cc1/C3=C\CCNC(=O)OCC1c3ccccc3-c3ccccc31)OCO2	> 50	> 50
N#C/C(=C1C=C(Br)/C(=N\O)C=C\1Cl)c1cccc2ccccc12		17.7
CN1C(=O)c2cccc3cc([N+](=O)[O-])cc(c23)C1=O		> 10
CN1c2ccc(Cl)cc2C(=O)NC1c1ccc([N+](=O)[O-])s1 (stereo not drawn)		31.1
c1cc(CNC23CC4CC(CC(C4)C2)C3)cc(C[N+](Cc2cccc(CNC34CC5CC(CC(C5)C3)C4)c2)(Cc2cccc(CNC34CC5CC(CC(C5)C3)C4)c2)Cc2cccc(CNC34CC5CC(CC(C5)C3)C4)c2)c1 (stereo not drawn)	5.11	22.2

system: ACHN renal; test: DTP human tumour cell line panel, 48 h

Structure (SMILES)	GI50 [µM]	TGI [µM]
CN1CCN(CCCOc2ccc3nc(Nc4ccc(Cl)c(C(F)(F)F)c4)ccc3c2)CC1	12.5	32
CC(C)n1nc(-c2cc3cc(O)ccc3[nH]2)c2c(N)ncnc21	0.224	5.18
CCCCC(O)(c1ccc(Cl)cc1)C(CN1CCOCC1)c1ccc(Cl)cc1 (stereo not drawn)	14.4	28.5
Cc1cc(C(=O)Nc2ncc(Cc3cccc(C(F)(F)F)c3)s2)c2ccccc2n1	0.339	> 100
O=C(N/N=C/c1ccc(Cl)cc1)c1ccc(C(F)(F)F)nc1Nc1cccc(C(F)(F)F)c1	2.73	8.77
COc1cc2ncnc(Nc3ccc(C)c(O)c3)c2cc1OC	0.799	> 25
O=C1OC(C(O)CO)C(=O)C1=O (stereo not drawn)	2860	> 10000
COC(=O)C1=CNC=C(C(=O)OC)C1C1=CC(=O)C(C)=CC1=O	2.52	8.18
COc1ccc(/C=C/c2ccnc3ccccc23)c(OC)c1		> 10
Cc1ccc(C(=O)CN(/C=C/C(=O)C(F)(F)F)c2ccc(S(N)(=O)=O)cc2)cc1	> 100	> 100
Clc1nc(Cl)c(Cl)c(-c2ccccc2)n1		33.5
COC(C(O)CO)C(O)C(O)C(=O)NNc1ccccc1 (stereo not drawn)		> 100
NS(=O)(=O)c1ccc(NC2(C(=O)O)CCCC2)cc1		> 100
O=C(O)C1OC(n2cc(F)c(=O)[nH]c2=O)CC1O (stereo not drawn)		> 59.1
N=C1C(c2nc3ccccc3s2)=C(O)CN1c1cc(C(F)(F)F)ccc1Cl	21.2	> 100
CC(=O)CSCc1ccccn1		> 100
COc1ccccc1CNCCCN1C(=O)c2ccc3c4c(ccc(c24)C1=O)C(=O)N(CCCOCCCCOCCCN)C3=O	1.21	2.57
CCOC(=O)[C@@H](N)CCC(=O)N[C@@H](CSCc1ccccc1)C(=O)N[C@@H](C(=O)OCC)c1ccccc1	18.6	34.8
COc1ccc(Nc2c3ccccc3nc3occc23)cc1	9.95	> 80.6
CC(=O)/C(C)=N/NC(=O)c1ccccc1O	> 100	> 100
CCCCCCCC/C=C/CCCCCCCC(=O)OC[C@H]1O[C@@H](n2ccc(N)nc2=O)C(F)(F)[C@@H]1O	< 0.01	6.07
NS(=O)(=O)c1ccc(N=Nc2c(O)[nH]c3ccc(-c4cnco4)cc23)cc1	17.7	> 25
COc1cc2c3c(n(CCCNC(=O)OCC4c5ccccc5-c5ccccc54)c(=O)c2cc1OC)-c1cc2c(cc1/C3=C\CCNC(=O)OCC1c3ccccc3-c3ccccc31)OCO2	> 11.8	> 35
N#C/C(=C1C=C(Br)/C(=N\O)C=C\1Cl)c1cccc2ccccc12		22.9
